Entries after “also recorded” stand apart in the source; their conditions may differ.
Columns and labels:
[1] = system: NADH production by serine catabolism; test: In vivo [2,3,3-2H]serine infusion, malate labeling; settings: WT C57BL6/J mice, SHIN2 200 mg/kg ip single injection before 2.5 h tracer infusion
Method: Mouse breeding and isotope tracing. Animal studies followed protocols approved by the Princeton University Institutional Animal Care and Use Committee and the Rutgers University Institutional Animal Care and Use Committee. NDUFS4+/− mice were purchased from Jackson Laboratory. The mice were on normal light cycle (7 AM-7 PM). In vivo infusion was performed on 9-week old normal C57BL/6 mice pre-catheterized on the right jugular vein, and 4-week old NDUFS4−/− or NDUFS4+/+ mice pre-catheterized on the jugular vein. Infusion was performed for 2.5 h to achieve isotopic pseudo-steady state. The mouse infusion setup included a tether and swivel system, connecting to the button pre-implanted under the back skin of mice. Mice were fasted from 9:00 am to 2 pm, and infused from 2 pm till 4:30 pm. […]
Calculation of 2H-serine contribution to malate, aspartate, and NADH: For malate and aspartate, the 2H-labeling fraction was measured directly (fractional size of 2H-peak relative to sum of all peaks, after isotope correction as above). For NADH, the 2H-labeling fraction was measured based on the active hydride labeling (x), which was determined from the labeling pattern of NAD+ and NADH by least square fitting in MATLAB of the observed experimental data (after natural isotope correction) to the below vectors (Liu et al., 2016a). […]

NDUFS4−/− mice = test: Treatment of NDUFS4−/− mice (mitochondrial disease model); assay type: in vivo
Method: NDUFS4−/− mice were housed with normal mice and gel food was supplied to guarantee sufficient food supply. Mice were grouped as vehicle control group and SHIN2 treatment groups. SHIN2 was dissolved in 20% 2-hydroxypropyl-cyclodextrin solution, and delivered by intraperitoneal (50 μg/g mice) b.i.d. Mice weights were recorded every day. Limb clasps were recorded daily, with mice annotated as having the pathological limb clasping phenotype on the third consecutive day of clasping. 20% weight loss of the peak weight for each mouse is considered as the humane endpoint.
Mouse Model. B6.129S4-Ndufs4+/− mice were purchased from Jackson laboratories. The mice are heterozygous for a protein in mitochondrial complex 1 and have been bred to generate homozygous knockout mouse for the study of mitochondrial deficiency. These mice are a model of mitochondrial disease and knockouts are healthy until approximately 5 weeks age, but develop lethal encephalomyopathy by 7 weeks.
Treatment strategy: Mice were grouped as vehicle treatment group and KDG112 treatment group. KDG112 was dissolved in 20% hydroxypropyl cyclodextrin to a final concentration of 5 mg/ml. Mice were dosed B.I.D at 50 mg/kg ip. Mice weight and body temperature are recorded, and body condition score were given according to the chart below.

[2] = KDG112 50 mg/kg ip B.I.D, compared to vehicle

## Cc1n[nH]c2c1C(c1cc(C#CCCCO)cc(CO)c1)(C(C)C)C(C#N)=C(N)O2 (stereo not drawn) [SHIN2]
[1]
  malate labeling from [2,3,3-2H]serine (NADH production by serine catabolism): blocks NADH production by serine catabolism in vivo; also recorded: blocked most malate labeling
NDUFS4−/− mice; [2]
  body condition score: lower score
  body temperature: higher body temperature
  locomotor activity: better locomotor activity
  symptoms of hind limb clasp: delayed symptoms of hind limb clasp
NDUFS4−/− mice; SHIN2 50 mg/kg b.i.d. from postnatal day 25±4, versus vehicle, 50 mg/kg
  pathological limb clasping: Delayed occurrence of limb clasping; also recorded: delayed pathological clasping behavior
NDUFS4−/− mice; SHIN2 50 mg/kg b.i.d. versus vehicle, p=0.18, log-rank Test
  survival: not significantly altering survival
NDUFS4−/− mice; first pair of pups, KDG112 treated mouse
  time after day 49 until hind limb clasping symptoms develop: 10 days
NDUFS4−/− mice; first pair of pups, day 49 (P49), treatment from P29
  leg control and cage edge test: can control its leg normally as wild type, and can walk freely on the edge test
NDUFS4−/− mice; first pair of pups, day 63
  body weight: still maintains its weight
NDUFS4−/− mice; second pair of pups, KDG112 treated mouse
  day at which symptoms such as hind limb clasping develop: 47 days
NDUFS4−/− mice; second pair of pups, day 38, treatment from P28
  behaviour: behaves normally

From US20230100559A1, “Compositions and Methods for Treatment of Disease by Manipulation of Serine Metabolism” (The Trustees of Princeton University, priority 2020, published 2023)
